Measurements as given in US20100099676A1 (SHIONOGI & CO., LTD., priority 2006, published 2010).

These compounds were tested against T1, MMP-13 (Homo sapiens, UniProt P45452) (assay: Enzyme inhibiting activity of MMPs, fluorogenic peptide substrate). Details: compounds not described in the Tables; read-out: inhibiting activity for MMP-13.
T1 construct: purchased Calbiochem (EMD/MERCK Biosciences)
Assay type: biochemical
Procedure: Various human MMPs (MMP-2, MMP-9 and MMP-13) were purchased from Calbiochem (EMD/MERCK Biosciences).
Since the purchased MMP-13 was Proenzyme, the activated one was used, which was incubated at 37° C. for 2 hours after the successive addition of an assay buffer (containing 50 mM Tris-HCl (pH7.6), 0.3 M NaCl, 10 mM CaCl2, 0.005% Brij35) and APMA (final concentration 1 mM) to the enzyme solution.
The enzyme activity of MMPs was measured according to the method described in C. Graham Knight, Frances Willenbrock and Gillian Murphy: A novel coumarin-labelled peptide for sensitive continuous assays of the matrix metalloproteinases: FEBS LETT., 296, (1992), 263-266. As a substrate, MOCAc-Pro-Leu-Gly-Leu-A2Pr(DNP)- Ala-Arg-NH2 (Peptide Institute, Inc. Osaka, Japan) was used, and the following four assays are performed per compound (inhibitor) for measuring the inhibiting activity.
(A) Substrate (synthetic substrate), enzyme (MMPs), inhibitor
(B) Substrate (synthetic substrate), inhibitor
(C) Substrate (synthetic substrate), enzyme (MMPs)
(D) Substrate (synthetic substrate)
In each assay, the fluorescent intensity was measured, and inhibition (%) was calculated by the following equation.
Inhibition (%)=[I−(A−B)/(C−D)]×100
IC50 indicates a concentration at which inhibition (%) is 50%.
`C[C@@H](NS(=O)(=O)N1CCN(c2ccc(C#Cc3cccc(C(=O)NCc4ccccc4)n3)cc2)CC1)C(=O)O` [Compound I-18, (R)-2-{4-[4-(6-benzylcarbamoylpyridine 2-ylethynyl)-phenyl]-piperazine-1-sulfonylamino}-proponic acid] gave an IC50 of less than 10 nM. Work on `C[C@@H](NS(=O)(=O)N1CCN(c2ccc(C#Cc3ccnc(C(=O)NCc4ccccc4)c3)cc2)CC1)C(=O)O` [Compound I-19, (R)-2-{4-[4-(2-benzylcarbamoylpyridin-4-ylethynyl)-phenyl]-piperazine-1-sulfonylamino}-proponic acid] yielded an IC50 of less than 10 nM. Compound `CCC[C@H](NS(=O)(=O)N1CCN(c2ccc(C#Cc3cccc(-c4ncc(C)o4)c3)cc2)CC1)C(=O)O` [Compound I-26, (S)-2-(4-{4-[3-(5-methyloxazol-2-yl)-phenylethynyl]-phenyl}-piperazine-1-sulfonylamino)-pentanoic acid] has an IC50 of 10 to 100 nM. `Cc1cnc(-c2cccc(C#Cc3ccc(N4CCN(S(=O)(=O)N[C@@H](C(=O)O)C(C)C)CC4)cc3)c2)o1` [Compound I-27, (R)-3-methyl-2-(4-{4-[3-(5-methyloxazol-2-yl)-phenylethynyl]-phenyl}-piperazine-1-sulfonylamino)-butanoic acid] was tested, and the IC50 was 10 to 100 nM. Work on `Cc1cc(CNC(=O)c2cccc(C#Cc3ccc(N4CCN(S(=O)(=O)N[C@H](C)C(=O)O)CC4)cc3)c2)ccc1F` [Compound I-28, (R)-2-(4-{4-[3-(4-fluoro3-methylbenzylcarbamoyl)-phenylethynyl]-phenyl}-piperazine-1-sulfonylamino)-proponic acid] yielded an IC50 of less than 10 nM. Compound `Cc1cc(CNC(=O)c2cccc(/C=C/c3ccc(N4CCN(S(=O)(=O)N[C@H](C)C(=O)O)CC4)cc3)c2)ccc1F` [Compound I-29, (R)-2-[4-(4-{(E)-2-[3-(4-fluoro3-methylbenzylcarbamoyl)-phenyl]-vinyl}-phenyl)-piperazine-1-sulfonylamino]-proponic acid] has an IC50 of 10 to 100 nM. `C[C@@H](NS(=O)(=O)N1CCN(c2ccc(C#Cc3cccc(C(=O)NCc4ccc(Cl)cc4)c3)cc2)CC1)C(=O)O` [Compound I-32, (R)-2-(4-{4-[3-(4-chlorobenzylcarbamoyl)-phenylethynyl]-phenyl}-piperazine-1-sulfonylamino)-proponic acid] gave an IC50 of less than 10 nM. With `CC(C)C[C@H](NS(=O)(=O)N1CCN(c2ccc(C#Cc3ccc4cccc(C(N)=O)c4c3)cc2)CC1)C(=O)O` [Compound I-55, (S)-2-{4-[4-(8-carbamoylnaphthalen-2-ylethynyl)-phenyl]-piperazine-1-sulfonylamino}-4-methylpentanoic acid] the IC50 was 10 to 100 nM. `C[C@@H](NS(=O)(=O)N1CCN(c2ccc(C#Cc3ccc4cccc(C(=O)NCCF)c4c3)cc2)CC1)C(=O)O` [Compound I-56, (R)-2-(4-{4-[8-(2-fluoroethylcarbamoyl)-naphthalen-2-ylethynyl]-phenyl}-piperazine-1-sulfonylamino)-proponic acid] showed an IC50 of less than 10 nM. `CC(C)[C@H](NS(=O)(=O)N1CCN(c2ccc(C#Cc3ccc4cccc(C(N)=O)c4c3)cc2)CC1)C(=O)O` [Compound I-58, (S)-2-{4-[4-(8-carbamoylnaphthalen-2-ylethynyl)-phenyl]-piperazine-1-sulfonylamino}-3-methylbutanoic acid] showed an IC50 of 10 to 100 nM. `CCC[C@H](NS(=O)(=O)N1CCN(c2ccc(/C=C/c3ccc4cccc(C(N)=O)c4c3)cc2)CC1)C(=O)O` [Compound I-59, (S)-2-(4-{4-[(E)-2-(8-carbamoylnaphthalen-2-yl)-vinyl]-phenyl}-piperazine-1-sulfonylamino)-pentanoic acid] showed an IC50 of 10 to 100 nM. `CC(C)C[C@@H](NS(=O)(=O)N1CCN(c2ccc(C#Cc3ccc4cccc(C(N)=O)c4c3)cc2)CC1)C(=O)O` [Compound I-60, (R)-2-{4-[4-(8-carbamoylnaphthalen-2-ylethynyl)-phenyl]-piperazine-1-sulfonylamino}-4-methylpentanoic acid] showed an IC50 of 10 to 100 nM. In the case of `C[C@@H](NS(=O)(=O)N1CCN(c2ccc(C#Cc3ccc4cccc(C(=O)NCCNC(=O)OC(C)(C)C)c4c3)cc2)CC1)C(=O)O` [Compound I-62, (R)-2-(4-{4-[8-(2-tert-butoxycarbonylaminoethylcarbamoyl)-naphthalen-2-ylethynyl]-phenyl}-piperazine-1-sulfonylamino)-proponic acid], the IC50 is reported as 10 to 100 nM. Compound `C[C@@H](NS(=O)(=O)N1CCN(c2ccc(C#Cc3ccc4cccc(/C=C/C#N)c4c3)cc2)CC1)C(=O)O` [Compound I-67, (R)-2-(4-{4-[8-((E)-2-cyanovinyl)-naphthalen-2-ylethynyl]-phenyl}-piperazine-1-sulfonylamino)-proponic acid] has an IC50 of less than 10 nM. With `C[C@@H](NS(=O)(=O)N1CCN(c2ccc(C#Cc3ccc4cccc(/C=C/C(N)=O)c4c3)cc2)CC1)C(=O)O` [Compound I-68, (R)-2-(4-{4-[8-((E)-2-carbamoylvinyl)-naphthalen-2-ylethynyl]-phenyl}-piperazine-1-sulfonylamino)-proponic acid] the IC50 was less than 10 nM. `C[C@@H](NS(=O)(=O)N1CCN(c2ccc(C#Cc3ccc4cccc(/C=C\C#N)c4c3)cc2)CC1)C(=O)O` [Compound I-69, (R)-2-(4-{4-[8-((Z)-2-cyanovinyl)-naphthalen-2-ylethynyl]-phenyl}-piperazine-1-sulfonylamino)-proponic acid] was tested, and the IC50 was 10 to 100 nM. `C[C@@H](NS(=O)(=O)N1CCN(c2ccc(C#Cc3ccc4cccc(/C=C/c5nnn[nH]5)c4c3)cc2)CC1)C(=O)O` [Compound I-71] gave an IC50 of less than 10 nM. With `C[C@@H](NS(=O)(=O)N1CCN(c2ccc(C#Cc3ccc4cccc(/C=C/Cl)c4c3)cc2)CC1)C(=O)O` [Compound I-72, (R)-2-(4-{4-[8-((E)-2-chlorovinyl)-naphthalen-2-ylethynyl]-phenyl}-piperazine-1-sulfonylamino)-proponic acid] the IC50 was 10 to 100 nM. With `CC(C)NS(=O)(=O)c1cccc2ccc(C#Cc3ccc(N4CCN(S(=O)(=O)N[C@H](C)C(=O)O)CC4)cc3)cc12` [Compound I-80, (R)-2-{4-[4-(8-isopropylsulfamoylnaphthalen-2-ylethynyl)-phenyl]-piperazine-1-sulfonylamino}-proponic acid] the IC50 was 10 to 100 nM. For `C[C@@H](NS(=O)(=O)N1CCN(c2ccc(C#Cc3ccc4cccc(S(N)(=O)=O)c4c3)cc2)CC1)C(=O)O` [Compound I-81, (R)-2-{4-[4-(8-sulfamoylnaphthalen-2-ylethynyl)-phenyl]-piperazine-1-sulfonylamino}-proponic acid], the IC50 was 10 to 100 nM. Compound `CSc1cccc2ccc(C#Cc3ccc(N4CCN(S(=O)(=O)N[C@H](C)C(=O)O)CC4)cc3)cc12` [Compound I-82, (R)-2-{4-[4-(8-methylsulfanylnaphthalen-2-ylethynyl)-phenyl]-piperazine-1-sulfonylamino}-proponic acid] has an IC50 of 10 to 100 nM. `C[C@@H](NS(=O)(=O)N1CCN(c2ccc(C#Cc3ccc4cccc(S(C)(=O)=O)c4c3)cc2)CC1)C(=O)O` [Compound I-83, (R)-2-{4-[4-(8-methanesulfonylnaphthalen-2-ylethynyl)-phenyl]-piperazine-1-sulfonylamino}-proponic acid] showed an IC50 of 10 to 100 nM. With `CCC[C@H](NS(=O)(=O)N1CCN(c2ccc(C#Cc3ccc4cccc(C(N)=O)c4c3)cc2)CC1)C(=O)O` [Compound I-92, (S)-2-{4-[4-(8-carbamoylnaphthalen-2-ylethynyl)-phenyl]-piperazine-1-sulfonylamino}-pentanoic acid] the IC50 was 10 to 100 nM. `CC(C)[C@@H](NS(=O)(=O)N1CCN(c2ccc(C#Cc3ccc4cccc(C(N)=O)c4c3)cc2)CC1)C(=O)O` [Compound I-93, (R)-2-{4-[4-(8-carbamoylnaphthalen-2-ylethynyl)-phenyl]-piperazine-1-sulfonylamino}-3-methylbutanoic acid] showed an IC50 of 10 to 100 nM. Compound `CO/N=C(\C)c1cccc2ccc(C#Cc3ccc(N4CCN(S(=O)(=O)N[C@H](C)C(=O)O)CC4)cc3)cc12` [Compound I-95, (R)-2-{4-[4-(8-{1-[(E)-methoxyimino]-ethyl}-naphthalen-2-ylethynyl)-phenyl]-piperazine-1-sulfonylamino}-proponic acid] has an IC50 of 10 to 100 nM. `CO/N=C(/C)c1cccc2ccc(C#Cc3ccc(N4CCN(S(=O)(=O)N[C@H](C)C(=O)O)CC4)cc3)cc12` [Compound I-96, (R)-2-{4-[4-(8-{1-[(Z)-methoxyimino]-ethyl}-naphthalen-2-ylethynyl)-phenyl]-piperazine-1-sulfonylamino}-proponic acid] gave an IC50 of 10 to 100 nM. Work on `COc1cccc2ccc(C#Cc3ccc(N4CCN(S(=O)(=O)N[C@H](C)C(=O)O)CC4)cc3)cc12` [Compound I-99, (R)-2-{4-[4-(8-methoxynaphthalen-2-ylethynyl)-phenyl]-piperazine-1-sulfonylamino}-proponic acid] yielded an IC50 of 10 to 100 nM. In the case of `CC(=O)c1cccc2ccc(C#Cc3ccc(N4CCN(S(=O)(=O)N[C@@H](C(=O)O)C(C)C)CC4)cc3)cc12` [Compound I-101, (R)-2-{4-[4-(8-acetylnaphthalen-2-ylethynyl)-phenyl]-piperazine-1-sulfonylamino}-3-methylbutanoic acid], the IC50 is reported as 10 to 100 nM. In the case of `CCNC(=O)c1cccc2ccc(C#Cc3ccc(N4CCN(S(=O)(=O)N[C@H](C)C(=O)O)CC4)cc3)cc12` [Compound I-104, (R)-2-{4-[4-(8-ethylcarbamoylnaphthalen-2-ylethynyl)-phenyl]-piperazine-1-sulfonylamino}-proponic acid], the IC50 is reported as less than 10 nM.
